Measurements: US9035071B2, “Compounds acting at multiple prostaglandin receptors giving a general anti-inflammatory response” (Allergan, Inc., priority 2011, dated 2015)

Tests used:
Type in all cases: cell-based
[1] = target: T1, human recombinant prostanoid DP1 receptor (Homo sapiens, UniProt Q13258); test: FLIPR Ca2+ signaling, PG antagonist activity, DP; details: antagonism of standard agonist BW 245C, HEK-293 EBNA stable cells with chimeric Gqs
T1 construct: expressed in transfected cells; co-transfected with chimeric Gqs-HA
T1 sequence (Q13258 1-359): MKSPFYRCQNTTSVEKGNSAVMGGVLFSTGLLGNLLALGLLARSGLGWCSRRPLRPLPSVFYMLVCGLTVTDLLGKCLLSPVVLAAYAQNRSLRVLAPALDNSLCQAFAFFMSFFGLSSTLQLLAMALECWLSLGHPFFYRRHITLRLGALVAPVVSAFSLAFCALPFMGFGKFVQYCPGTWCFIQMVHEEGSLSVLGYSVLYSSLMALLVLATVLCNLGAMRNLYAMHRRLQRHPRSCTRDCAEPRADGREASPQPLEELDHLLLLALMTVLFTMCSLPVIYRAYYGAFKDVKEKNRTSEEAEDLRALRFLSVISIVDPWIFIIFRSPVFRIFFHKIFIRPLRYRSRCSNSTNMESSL
Protocol: (§1) The above compounds were tested for PG antagonist activity as follows using human recombinant prostanoid receptor (DP1, EP1-4, FP, IP and TP) stable cell lines:
(§2) In order to measure the response of Gs and Gi coupled prostanoid receptors as a Ca^2+ signal, chimeric G protein cDNAs were used. Stable cell lines over-expressing human prostanoid DP1, EP1-4, FP, IP, and TP receptors were established as follows:
(§3) Briefly, human prostanoid DP1, EP2, and EP4 receptor cDNAs were co-transfected with chimeric Gqs cDNA containing a haemagglutanin (HA) epitope; human prostanoid EP3 receptors were co-transfected with chimeric Gqi-HA; human EP1, FP, IP, and TP receptor cDNAs were expressed with no exogenous G-proteins. Gqs and Gqi chimeric cDNAs (Molecular Devices, Sunnyvale, Calif., U.S.A.), as well as cDNAs of prostanoid receptors, were cloned into a pCEP4 vector with a hygromycin B selection marker. Transfection into HEK-293 EBNA (Epstein-Barr virus nuclear antigen) cells was achieved by the FuGENE 6 transfection Reagent (Roche Applied Science, Indianapolis, Ind., USA). Stable transfectants were selected according to hygromycin resistance. Because Gqs and Gqi contained an HA epitope, G-protein expression was detected by Western blotting analysis using anti-mouse HA monoclonal antibody and horseradish peroxidase (HRP)-conjugated secondary antibody, while functional expression of prostanoid receptors was detected by FLIPR screening (Matias et al., 2004). These stable cell lines were validated using previously published antagonists at 10 μM against serial dilutions of standard agonists by FLIPR functional assays for Ca^2− Signaling (as described below).
(§4) Ca^2+ signaling studies were performed using a FLIPR TETRA system (Molecular Devices, Sunnyvale, Calif., USA) in the 384-format. This is a high-throughput instrument for cell-based assays to monitor Ca^2+ signaling associated with GPCRs and ion channels. Cells were seeded at a density of 5×10^4 cells/well in BioCoat poly-D-lysine coated, black wall, clear bottom 384-well plates (BD Biosciences, Franklin lakes, N.J., USA) and allowed to attach overnight in an incubator at 37° C. The cells were then washed twice with HBSS-HEPES buffer (Hanks' balanced salt solution without bicarbonate and phenol red, 20 mM HEPES, pH 7.4) using an ELx405 Select CW Microplate Washer (BioTek, Winooski, Vt., USA). After 60 min of dye-loading in the dark using the Ca^2+-sensitive dye Fluo-4AM (Invitrogen, Carlsbad, Calif., USA), at a final concentration of 2×10^−6M, the plates were washed 4 times with HBSS-HEPES buffer to remove excess dye and leaving 50 μl of buffer in each well. The plates were then placed in the FLIPR TETRA instrument and allowed to equilibrate at 37° C. AGN-211377 was added in a 25 μl volume to each well to give final concentrations of 0.1 μM, 0.3 μM, 1 μM, 3 μM, 10 μM, and 30 μM; or 0.067 μM, 0.1 μM, 0.2 μM, 0.3 μM, 0.67 μM, and 1 μM for cells over-expressing TP receptors. After 4.5 minutes, a 7-point serial dilution of the standard agonist for the corresponding receptor, in a 25 μl volume was injected at the final concentrations from 10^−11M to 10^−5M in 10-fold serial dilution increments for cells expressing human recombinant DP1, EP1, EP2, EP3, EP4, FP, and IP receptors. The dose range for the standard agonist for human recombinant TP receptors was from 10^−12M to 10^−6M. HBSS-HEPES buffer was used as the negative control for the standard agonists. Cells were excited with LED (light emitting diode) excitation at 470-495 nm and emission was measured through an emission filter at 515-575 nm. Assay plates were read for 3.5 minutes using the FLIPR^TETRA. The peak increase in fluorescence intensity was recorded for each well. On each plate, negative controls, dose response of positive controls, and co-treatments of antagonist-agonist for each dose were in triplicates. Standard agonists were as follows: DP=BW 245C, EP1-EP4=PGE2, FP=17-phenyl-PGF2α, IP=Cicaprost, and TP=U-46619. […]

[2] = target: T2, human recombinant prostanoid FP receptor (Homo sapiens, UniProt P43088); test: FLIPR Ca2+ signaling, PG antagonist activity, FP; details: antagonism of standard agonist 17-phenyl-PGF2α, HEK-293 EBNA stable cells
T2 construct: expressed in transfected cells
T2 sequence (P43088 whole entry): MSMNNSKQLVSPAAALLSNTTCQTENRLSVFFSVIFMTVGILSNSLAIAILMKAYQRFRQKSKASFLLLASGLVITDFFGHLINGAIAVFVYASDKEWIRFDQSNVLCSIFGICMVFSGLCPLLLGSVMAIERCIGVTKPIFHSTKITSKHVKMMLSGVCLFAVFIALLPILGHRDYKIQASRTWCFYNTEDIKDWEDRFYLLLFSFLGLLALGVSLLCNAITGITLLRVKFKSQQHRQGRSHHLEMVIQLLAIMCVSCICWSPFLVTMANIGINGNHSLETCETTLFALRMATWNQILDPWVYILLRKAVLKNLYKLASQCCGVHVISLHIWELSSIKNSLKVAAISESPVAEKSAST
Protocol: as §1, §2, §3, §4

[3] = target: T3, human recombinant prostanoid EP4 receptor (Homo sapiens, UniProt P35408); test: FLIPR Ca2+ signaling, PG antagonist activity, EP4; details: antagonism of standard agonist PGE2, HEK-293 EBNA stable cells with chimeric Gqs
T3 construct: expressed in transfected cells; co-transfected with chimeric Gqs-HA
T3 sequence (P35408 whole entry): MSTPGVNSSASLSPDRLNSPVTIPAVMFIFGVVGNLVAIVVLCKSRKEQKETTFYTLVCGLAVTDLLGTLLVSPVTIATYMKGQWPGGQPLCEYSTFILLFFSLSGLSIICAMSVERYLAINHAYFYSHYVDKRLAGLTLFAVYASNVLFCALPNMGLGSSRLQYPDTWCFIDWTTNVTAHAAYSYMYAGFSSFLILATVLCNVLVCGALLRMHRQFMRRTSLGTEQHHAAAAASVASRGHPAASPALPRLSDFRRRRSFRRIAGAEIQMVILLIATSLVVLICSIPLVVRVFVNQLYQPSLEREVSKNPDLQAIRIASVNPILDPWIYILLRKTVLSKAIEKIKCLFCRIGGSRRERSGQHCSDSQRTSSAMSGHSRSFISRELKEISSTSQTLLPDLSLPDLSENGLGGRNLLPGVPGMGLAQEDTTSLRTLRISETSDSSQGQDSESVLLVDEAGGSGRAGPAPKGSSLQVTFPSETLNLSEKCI
Protocol: as §1, §2, §3, §4

[4] = target: T4, human recombinant prostanoid IP receptor (Homo sapiens, UniProt P43119); test: FLIPR Ca2+ signaling, PG antagonist activity, IP; details: antagonism of standard agonist Cicaprost, HEK-293 EBNA stable cells
T4 construct: expressed in transfected cells
T4 sequence (P43119 whole entry): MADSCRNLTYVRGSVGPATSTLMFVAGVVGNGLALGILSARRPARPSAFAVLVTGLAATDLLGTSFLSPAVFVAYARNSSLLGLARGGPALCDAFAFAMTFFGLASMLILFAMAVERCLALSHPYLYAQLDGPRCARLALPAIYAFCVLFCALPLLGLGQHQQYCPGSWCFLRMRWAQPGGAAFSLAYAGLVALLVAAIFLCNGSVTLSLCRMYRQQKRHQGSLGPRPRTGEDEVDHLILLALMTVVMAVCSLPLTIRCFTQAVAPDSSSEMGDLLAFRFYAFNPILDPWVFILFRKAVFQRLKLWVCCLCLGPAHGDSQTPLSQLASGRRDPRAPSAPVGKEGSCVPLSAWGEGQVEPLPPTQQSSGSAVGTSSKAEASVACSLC
Protocol: as §1, §2, §3, §4

[5] = target: T5, human recombinant prostanoid TP receptor (Homo sapiens, UniProt P21731); test: FLIPR Ca2+ signaling, PG antagonist activity, TP; details: antagonism of standard agonist U-46619, HEK-293 EBNA stable cells
T5 construct: expressed in transfected cells
T5 sequence (P21731 1-343): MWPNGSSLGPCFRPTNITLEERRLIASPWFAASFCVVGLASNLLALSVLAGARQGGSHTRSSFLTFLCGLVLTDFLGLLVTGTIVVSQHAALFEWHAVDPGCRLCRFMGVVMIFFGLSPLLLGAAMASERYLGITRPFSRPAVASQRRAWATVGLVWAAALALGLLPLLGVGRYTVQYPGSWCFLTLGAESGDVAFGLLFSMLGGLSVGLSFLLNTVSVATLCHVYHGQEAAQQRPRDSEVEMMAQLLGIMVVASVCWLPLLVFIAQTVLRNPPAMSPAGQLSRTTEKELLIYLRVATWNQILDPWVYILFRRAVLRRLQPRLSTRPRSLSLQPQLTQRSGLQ
Protocol: as §1, §2, §3, §4

Row | SMILES | Kb [1] | Kb [2] | Kb [3] | Kb [4] | Kb [5]
1 | CCC(CC)COc1ccc(Br)cc1Cn1ncc(CC(=O)O)c1C [Example 1, {1-[5-bromo-2-(2-ethyl-butoxy)-benzyl]-5-methyl-1H-pyrazol-4-yl}-acetic acid] | 400 nM | 2700 nM | 100 nM | 4.8 µM | 3 nM
2 | CCC(CC)COc1ccc(Br)cc1Cn1ncc(C(=O)O)c1C [Example 2, 1-[5-bromo-2-(2-ethyl-butoxy)-benzyl]-5-methyl-1H-pyrazole-4-carboxylic acid] | 600 nM | 80 nM | 380 nM | 2.4 µM | 12 nM
3 | CCC(CC)COc1ccc(Br)cc1Cn1cc(C(=O)O)c(C)n1 [Example 3] | 1100 nM | 400 nM | 1300 nM | 1.4 µM | 30 nM
4 | CCC(CC)COc1ccc(Cl)cc1Cn1cc(C(=O)O)cn1 [Example 4, 1-[5-chloro-2-(2-ethyl-butoxy)-benzyl]-1H-pyrazole-4-carboxylic acid] | 1400 nM | 2000 nM | 4800 nM | 3.1 µM | 100 nM
5 | CCC(CC)COc1ccc(Cl)cc1Cn1nc(C)c(C(=O)O)c1C [Example 5, 1-[5-chloro-2-(2-ethyl-butoxy)-benzyl]-3,5-dimethyl-1H-pyrazole-4-carboxylic acid] | 350 nM | 700 nM | 860 nM | 0.6 µM | 18 nM
6 | CCCc1nn(Cc2cc(Cl)ccc2OCC(CC)CC)cc1C(=O)O [Example 6, 1-[5-chloro-2-(2-ethyl-butoxy)-benzyl]-3-propyl-1H-pyrazole-4-carboxylic acid] | 5600 nM | ≥ 10000 nM | 4900 nM | ≥ 10 µM | 500 nM
7 | CCCc1c(C(=O)O)cnn1Cc1cc(Cl)ccc1OCC(CC)CC [Example 7, 1-[5-chloro-2-(2-ethyl-butoxy)-benzyl]-5-propyl-1H-pyrazole-4-carboxylic acid] | ≥ 10000 nM | ≥ 10000 nM | 3300 nM | 1.8 µM | 150 nM
8 | CCC(CC)COc1ccc(C(F)(F)F)cc1Cn1ncc(C(=O)O)c1C [Example 8, 1-[2-(2-ethyl-butoxy)-5-trifluoromethyl-benzyl]-5-methyl-1H-pyrazole-4-carboxylic acid] | 1400 nM | 200 nM | 1600 nM | ≥ 10 µM | 45 nM
9 | CCC(CC)COc1ccc(C(F)(F)F)cc1Cn1cc(C(=O)O)c(C)n1 [Example 9, 1-[2-(2-ethyl-butoxy)-5-trifluoromethyl-benzyl]-3-methyl-1H-pyrazole-4-carboxylic acid] | 3900 nM | 7200 nM | ≥ 10000 nM | ≥ 10 µM | 440 nM
10 | CCC(CC)COc1ccc(Cl)cc1Cn1ncc(C(=O)O)c1C [Example 10, 1-[5-chloro-2-(2-ethyl-butoxy)-benzyl]-5-methyl-1H-pyrazole-4-carboxylic acid] | 940 nM | 190 nM | 500 nM | 1.3 µM | 6 nM
11 | Cc1c(C(=O)O)cnn1Cc1cc(Cl)ccc1OCC(C)C [Example 11, 1-(5-chloro-2-isobutoxy-benzyl)-5-methyl-1-pyrazole-4-carboxylic acid] | 4550 nM | 500 nM | 3300 nM | 8.3 µM | 80 nM
12 | Cc1c(C(=O)O)cnn1Cc1cc(Cl)ccc1OCC1CCCC1 [Example 12, 1-(5-chloro-2-cyclopentylmethoxy-benzyl)-5-methyl-1H-pyrazole-4-carboxylic acid] | 2500 nM | 110 nM | 600 nM | 2.65 µM | 40 nM
13 | Cc1c(C(=O)O)cnn1Cc1cc(Br)ccc1OCC(C)C [Example 13, 1-(5-bromo-2-isobutoxy-benzyl)-5-methyl-1H-pyrazole-4-carboxylic acid] | 3500 nM | 70 nM | 2100 nM | 7.7 µM | 20 nM
14 | Cc1c(C(=O)O)cnn1Cc1cc(Br)ccc1OCC(C)(C)C [Example 14, 1-[5-bromo-2-(2,2-dimethyl-propoxy)-benzyl]-5-methyl-1H-pyrazole-4-carboxylic acid] | 3400 nM | 90 nM | 1300 nM | ≥ 10 µM | 20 nM
15 | CCC(CC)COc1ccc(OC(F)(F)F)cc1Cn1ncc(C(=O)O)c1C [Example 15, 1-[2-(2-ethyl-butoxy)-5-trifluoromethoxy-benzyl]-5-methyl-1H-pyrazole-4-carboxylic acid] | 780 nM | 140 nM | 1500 nM | ≥ 10 µM | 8 nM
16 | CCC(CC)COc1ccc(Br)cc1Cn1ncc(C(=O)O)c1N [Example 16, 5-amino-1-[5-bromo-2-(2-ethyl-butoxy)-benzyl]-1H-pyrazole-4-carboxylic acid] | 1600 nM | 200 nM | 300 nM | 5.1 µM | 50 nM
